Experimental data: the supplement of paper PMC10307832

Legend:
Assay in all cases: relative viability (nuclei count vs DMSO), 5 days (fraction); higher = more cells survive
R406 + Olaparib = compound: COc1cc(Nc2ncc(F)c(Nc3ccc4c(n3)NC(=O)C(C)(C)O4)n2)cc(OC)c1OC [R406] + O=C(c1cc(Cc2n[nH]c(=O)c3ccccc23)ccc1F)N1CCN(C(=O)C2CC2)CC1 [Olaparib] (partner 8 µM)
Method in brief: (§1)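 Lung cancer cell lines were pin-tool dosed in 1536-well plates on the day after seeding, with either a lone drug or a fixed anchor-drug dose plus five library-drug doses (not always all listed) in √10 steps. Nuclei were counted on 4× images after 5 days. Relative viability is the ratio of treated-well to vehicle-well nuclei counts, with each value a median of duplicate plates.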

Daporinad + Trametinib = compound: O=C(/C=C/c1cccnc1)NCCCCC1CCN(C(=O)c2ccccc2)CC1 [Daporinad] + CC(=O)Nc1cccc(-n2c(=O)n(C3CC3)c(=O)c3c(Nc4ccc(I)cc4F)n(C)c(=O)c(C)c32)c1 [Trametinib] (partner 0.02 µM)
Method in brief: as §1

Daporinad + OSI-027 = compound: O=C(/C=C/c1cccnc1)NCCCCC1CCN(C(=O)c2ccccc2)CC1 [Daporinad] + COc1cccc2cc(-c3nc([C@H]4CC[C@H](C(=O)O)CC4)n4ncnc(N)c34)[nH]c12 [OSI-027] (partner 0.5 µM)
Method in brief: as §1

Daporinad + Crizotinib = compound: O=C(/C=C/c1cccnc1)NCCCCC1CCN(C(=O)c2ccccc2)CC1 [Daporinad] + C[C@@H](Oc1cc(-c2cnn(C3CCNCC3)c2)cnc1N)c1c(Cl)ccc(F)c1Cl [Crizotinib] (partner 1 µM)
Method in brief: as §1

| Cell Line | relative viability (R406 + Olaparib; first compound 0.08 µM) | relative viability (R406 + Olaparib; first compound 0.253 µM) | relative viability (R406 + Olaparib; first compound 0.8 µM) | relative viability (R406 + Olaparib; first compound 2.53 µM) | relative viability (R406 + Olaparib; first compound 8 µM) | relative viability (Daporinad + Trametinib; first compound 0.0005 µM) | relative viability (Daporinad + Trametinib; first compound 0.001581 µM) | relative viability (Daporinad + Trametinib; first compound 0.005 µM) | relative viability (Daporinad + Trametinib; first compound 0.01581 µM) | relative viability (Daporinad + OSI-027; first compound 0.0005 µM) | relative viability (Daporinad + OSI-027; first compound 0.001581 µM) | relative viability (Daporinad + OSI-027; first compound 0.005 µM) | relative viability (Daporinad + OSI-027; first compound 0.01581 µM) | relative viability (Daporinad + Crizotinib; first compound 0.0005 µM) | relative viability (Daporinad + Crizotinib; first compound 0.001581 µM) | relative viability (Daporinad + Crizotinib; first compound 0.005 µM) | relative viability (Daporinad + Crizotinib; first compound 0.01581 µM) |
| --- | --- | --- | --- | --- | --- | --- | --- | --- | --- | --- | --- | --- | --- | --- | --- | --- | --- |
| NCI-H441 | 0.429 | 0.693 | 0.619 | 0.489 | 0.322 | 0.351 | 0.426 | 0.496 | 0.573 | 0.552 | 0.856 | 0.805 | 0.671 | 0.79 | 0.916 | 1.1 | 1.15 |
| NCI-H460 | 0.363 | 0.577 | 0.441 | 0.434 | 0.341 | 0.0943 | 0.147 | 0.187 | 0.206 | 0.754 | 0.762 | 0.73 | 0.697 | 1.02 | 0.91 | 1.17 | 0.897 |
| NCI-H520 | 0.314 | 0.34 | 0.329 | 0.194 | 0.126 | 0.639 | 0.721 | 0.185 | 0.136 | 0.245 | 0.222 | 0.328 | 0.234 | 0.789 | 0.726 | 0.258 | 0.114 |
| NCI-H596 | 0.626 | 0.734 | 0.606 | 0.641 | 0.377 | 0.704 | 0.791 | 0.74 | 0.48 | 0.553 | 0.674 | 0.758 | 0.656 | 1.05 | 1.02 | 1.12 | 0.677 |
| NCI-H647 | 0.423 | 0.633 | 0.643 | 0.231 | 0.0598 | 0.456 | 0.572 | 0.603 | 0.672 | 0.583 | 0.598 | 0.647 | 0.735 | 1.27 | 0.974 | 1.43 | 1.11 |
| NCI-H650 | 0.342 | 0.42 | 0.435 | 0.313 | 0.301 | 1.05 | 1.14 | 1.01 | 1.27 | 0.477 | 0.415 | 0.525 | 0.626 | 0.736 | 0.749 | 0.75 | 0.798 |
| NCI-H661 | 0.731 | 0.783 | 0.673 | 0.697 | 0.591 | 0.665 | 0.746 | 0.52 | 0.376 | 0.811 | 0.719 | 0.74 | 0.341 | 0.975 | 0.998 | 1.04 | 0.52 |
| NCI-H727 | 0.533 | 0.67 | 0.666 | 0.75 | 0.663 | 0.398 | 0.453 | 0.375 | 0.379 | 0.603 | 0.606 | 0.622 | 0.519 | 0.713 | 0.786 | 0.938 | 0.698 |
| NCI-H838 | 0.725 | 0.798 | 0.908 | 0.248 | 0.142 | 0.496 | 0.637 | 0.542 | 0.265 | 0.415 | 0.465 | 0.475 | 0.555 | 0.886 | 0.92 | 0.959 | 0.675 |
